Experimental data taken from patent publication US20220017478A1, “2-BENZOYLAMINOBENZAMIDE DERIVATIVES AS BCL-3 INHIBITORS” (University College Cardiff Consultants Limited, priority 2013, published 2022).

Tests used:
[1] = Cell Titre Blue viability assay, HEK-293; type: cell-based; conditions: human, HEK-293 cells, HEK-293, 10 μM, vs DMSO
Source text: In all assays, a DMSO control was always used.

[2] = Cell Titre Blue viability assay, MDA-MB-231; conditions: human, MDA-MB-231 cells
Description: (§1) The viability of cells at experimental endpoints for particular assays was determined using the Cell Titre Blue reagent (Promega, Southampton, UK). This reagent measures the cellular metabolic activity using resazurin as an indicator dye. Viable cells, therefore metabolically active, will reduce resazurin into highly fluorescent resofurin. The resulting fluorescence levels are measured and indicate cell viability.
(§2) Cells were plated at low confluency into 96 well plates in 100 μl of complete growth media in triplicates and were incubated at 37° C. in 5% CO2 for the desired test exposure period. For each 100 μl of media in 96 well plates, 20 μl Cell Titre Blue reagent was added followed by incubation for an hour at 37° C. in 5% CO2. Fluorescence was then measured by setting excitation/emission wavelengths to 560/590 nm on a Flurostar Optima plate reader (BMG tabtech, Bucks, UK).
(§3) Cell toxicity was evaluated using the Cell Titre Blue viability assay over a range of molarities for 24 hrs.
(§4) Selected compounds were dissolved in DMSO and diluted to a highest concentration of 10 μM (0.1% DMSO). In all assays, a DMSO control was always used. Selected compounds were tested for cell toxicity in HEK-293 and MDA-MB-231 cells before being used in cell-based assays. Cell toxicity was evaluated using the Cell Titre Blue viability assay over a range of molarities for 24 hrs

MDA-MB-231 cells = conditions: 10 µM
Description: as §1, §2, §3, §4

NF-κB activity = assay: NF-κB luciferase reporter assay in MDA-MB-231 cells overexpressing Bcl-3; type: cell-based, human; conditions: for IC50: MDA-MB-231 overexpressing Bcl-3, 24 hrs then reporter 48 hrs, read-out: IC50 NF-κB activity
Description: For NF-κB luciferase assays, cells were seeded into clear bottom black 96-well plates (Corning Inc., Lowell, US) in antibiotic free culture media in appropriate density. After 24 hrs, cells were transfected with 10 ng of 3×κB luciferase plasmid and 10 ng of pcDNA3.1-Lacl plasmid per well. Empty pcDNA3.1 plasmid was also included to normalize the total weight of DNA transfected to 100 ng. For positive and negative controls respectively, 10 ng of pGL3control or pGL3basic were transfected in place of 3×KB luciferase plasmid. Transfection was carried out using Lipofectamine LTX reagents (Invitrogen, Paisley, UK).
After 48 hrs post-transfection with luciferase reporter plasmid, the media was aspirated and cells were lyzed using 50 μl/well of Glo-lysis buffer (Promega, Southampton, UK). The plate was left on a rocker for 20 min to facilitate complete cell lysis. Then, 20 μl of lysate from each well was removed and transferred into a new clear bottom black well plate for measuring LacZ activity as a transfection efficiency control and followed by addition of 20 ul/well of Beta-Glo substrate (Promega, Southampton, UK) and cultivation at room temperature for at least 20 min. Subsequently, 30 μl/well of Bright-Glo luciferase substrate (Promega, Southampton, UK) was added to the original plate and asses immediately for luminescence activity. The luminescence produced from either reaction was read using a Flurostar Optima plate reader (BMG tabtech, Bucks, UK).
The effect of Compound 1a on NF-κB activity was determined by NF-κB luciferase assay in MDA-MB-231 and HEK-293 cells overexpressing Bcl-3 and HEK-293 cells overexpressing p52. Cells were cultivated with Compound 1a over a range of molarities for 24 hrs before being transfected with NF-κB luciferase reporter plasmid for 48 hrs and analyzed for NF-κB activity.
The effect of selected analogues on NF-κB activity was determined by NF-KB luciferase assay in MDA-MB-231 cells. MDA-MB-231 Bcl-3 over-expressing cells were cultivated with compounds from series 1-3 at 1 μM concentration for 24 hrs before being transfected with NF-κB luciferase reporter plasmid for 48 hrs together with controls and analyzed for NF-κB activity.
Based on the results for the series of analogues, we have established dose response curve for selected analogues from series 1 (If), from series 2 (2a and 2c) and from series 3 (3a) over a range of molarities. MDA-MB-231 Bcl-3 WT cells were cultivated with selected compounds from series 1-3 over a range of molarities for 24 hrs before being transfected with NF-κB luciferase reporter plasmid for 48 hrs together with controls and analyzed for NF-κB activity (FIG. 7).

SMILES: O=C(Nc1ccccc1C(=O)NCCN1CCOCC1)c1ccc(F)cc1 [Compound 1c, 2-[(4-fluorobenzoyl)amino]-N-(2-morpholin-4-ylethyl)benzamide]
- viability at 24 h, 10 µM [1]: > 70%
- viability at 24 h, 10 µM [2]: > 70%

SMILES: COc1cccc(C(=O)Nc2ccccc2C(=O)NCCN2CCOCC2)c1 [Compound 1e, 2-[(3-methoxybenzoyl)amino]-N-(2-morpholin-4-ylethyl)benzamide]
- viability at 24 h, 10 µM [1]: > 70%
- viability at 24 h, 10 µM [2]: > 70%

SMILES: O=C(NCCN1CCOCC1)c1ccccc1NC(=O)c1ccccc1[N+](=O)[O-] [Compound 1g, 2-[(2-nitrobenzoyl)amino]-N-(2-morpholin-4-ylethyl)benzamide]
- viability at 24 h, 10 µM [1]: > 70%
- viability at 24 h, 10 µM [2]: > 70%

SMILES: O=C(Nc1ccccc1C(=O)NCCN1CCOCC1)c1ccc([N+](=O)[O-])cc1 [Compound 1i, 2-[(4-nitrobenzoyl)amino]-N-(2-morpholin-4-ylethyl) benzamide]
- cell viability (MDA-MB-231 cells): above 70%

SMILES: O=C(Nc1ccccc1C(=O)NCCN1CCOCC1)c1cc(F)cc(F)c1 [Compound 1o, 3,5-difluoro-N-(2-[(2-morpholin-4-ylethyl)carbamoyl]phenyl) benzamide]
- IC50 (NF-κB activity): 238 nM

SMILES: O=C(NCCN1CCOCC1)c1ccccc1NC(=O)c1c(F)cccc1F [Compound 1p, 2,6-difluoro-N-(2-[(2-morpholin-4-ylethyl)carbamoyl]phenyl) benzamide]
- IC50 (NF-κB activity): 706 nM

SMILES: O=C(Nc1ccccc1C(=O)NCCN1CCOCC1)c1ccc(F)cc1F [Compound 1q, 2,4-difluoro-N-(2-[(2-morpholin-4-ylethyl)carbamoyl]phenyl) benzamide]
- IC50 (NF-κB activity): 989 nM

SMILES: O=C(Nc1ccc(I)cc1C(=O)NCCN1CCOCC1)c1ccccc1F [Compound 3c, 2-[(2-fluorobenzoyl)amino]-5-iodo-N-(2-morpholin-4-ylethyl)benzamide]
- effect on NF-κB activity (NF-κB activity; 1 μM, 24 hrs, MDA-MB-231 Bcl-3 over-expressing cells, vs DMSO control / Compound 1a): significant decrease in NF-κB activity
